Source: ChEMBL document CHEMBL1201862, “PubChem BioAssay data set” (2004)
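96-well plates; 48 h exposure; 5 concentrations. Endpoints by linear interpolation between flanking doses. Not reached: highest tested concentration assigned. GI50 is the concentration that inhibits growth by half.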 The source made the active and inactive calls. Rule as the data show it: active = GI50 up to about 1.1 µM and inactive = higher.

Experiments:
Experiment in all cases: DTP human tumour cell line panel, 48 h
HT-29 = test system: HT-29
NCI-H23 = test system: NCI-H23
LXFL 529 = test system: LXFL 529
IGROV-1 = test system: IGROV-1
SN12C = test system: SN12C
SK-MEL-28 = test system: SK-MEL-28
K562 = test system: K562
OVCAR-4 = test system: OVCAR-4
DMS-273 = test system: DMS-273
HCT-116 = test system: HCT-116
SK-MEL-2 = test system: SK-MEL-2
EKVX = test system: EKVX
M19-MEL = test system: M19-MEL
KM-20L2 = test system: KM-20L2
COLO 205 = test system: COLO 205
HOP-62 = test system: HOP-62
SK-OV-3 = test system: SK-OV-3
A498 = test system: A498
SNB-78 = test system: SNB-78
HCT-15 = test system: HCT-15
OVCAR-3 = test system: OVCAR-3
UACC-62 = test system: UACC-62
Malme-3M = test system: Malme-3M
CAKI-1 = test system: CAKI-1
HOP-18 = test system: HOP-18
RXF 631 = test system: RXF 631
NCI-H522 = test system: NCI-H522
RPMI-8226 = test system: RPMI-8226
DLD-1 = test system: DLD-1
TK-10 = test system: TK-10
LOX IMVI = test system: LOX IMVI
NCI-H460 = test system: NCI-H460
SK-MEL-5 = test system: SK-MEL-5
HCC 2998 = test system: HCC 2998
SF-268 = test system: SF-268
786-0 = test system: 786-0
M14 = test system: M14
SF-295 = test system: SF-295
HOP-92 = test system: HOP-92
CCRF-CEM = test system: CCRF-CEM
SW-620 = test system: SW-620
OVCAR-8 = test system: OVCAR-8
XF498 = test system: XF498
A549 = test system: A549
UO-31 = test system: UO-31
UACC-257 = test system: UACC-257
SNB-19 = test system: SNB-19
NCI-H226 = test system: NCI-H226
KM12 = test system: KM12
HL-60 = test system: HL-60
OVCAR-5 = test system: OVCAR-5
MOLT-4 = test system: MOLT-4
ACHN = test system: ACHN
U-251 = test system: U-251
SF-539 = test system: SF-539
DMS-114 = test system: DMS-114
SNB-75 = test system: SNB-75
RXF 393 = test system: RXF 393

Nc1ncn([C@@H]2C=C(CO)C(O)C2O)c(=O)n1 (stereo partly drawn)
GI50 (HT-29): 57.4 µM (inactive)
GI50 (NCI-H23): > 100 µM (inactive)
GI50 (LXFL 529): 75 µM (inactive)
GI50 (IGROV-1): 70.1 µM (inactive)
GI50 (SN12C): > 100 µM (inactive)
GI50 (SK-MEL-28): > 100 µM (inactive)
GI50 (K562): 43.6 µM (inactive)
GI50 (OVCAR-4): > 100 µM (inactive)
GI50 (DMS-273): > 100 µM (inactive)
GI50 (HCT-116): 39.2 µM (inactive)
GI50 (SK-MEL-2): > 100 µM (inactive)
GI50 (EKVX): > 100 µM (inactive)
GI50 (M19-MEL): > 100 µM (inactive)
GI50 (KM-20L2): 63.8 µM (inactive)
GI50 (COLO 205): 37.8 µM (inactive)
GI50 (HOP-62): 53.7 µM (inactive)
GI50 (SK-OV-3): > 100 µM (inactive)
GI50 (A498): > 100 µM (inactive)
GI50 (SNB-78): 61.5 µM (inactive)
GI50 (HCT-15): 60.3 µM
GI50 (OVCAR-3): > 100 µM (inactive)
GI50 (UACC-62): 83.9 µM (inactive)
GI50 (Malme-3M): > 100 µM (inactive)
GI50 (CAKI-1): 98.4 µM (inactive)
GI50 (HOP-18): > 100 µM (inactive)
GI50 (RXF 631): > 100 µM (inactive)
GI50 (NCI-H522): > 100 µM (inactive)
GI50 (RPMI-8226): 37.7 µM (inactive)
GI50 (DLD-1): 58.2 µM (inactive)
GI50 (TK-10): > 100 µM (inactive)
GI50 (LOX IMVI): 44.4 µM (inactive)
GI50 (NCI-H460): 28.6 µM (inactive)
GI50 (SK-MEL-5): > 100 µM (inactive)
GI50 (HCC 2998): 56.2 µM (inactive)
GI50 (SF-268): > 100 µM (inactive)
GI50 (786-0): 55.5 µM (inactive)
GI50 (M14): 60.1 µM (inactive)
GI50 (SF-295): > 100 µM (inactive)
GI50 (HOP-92): > 100 µM (inactive)
GI50 (CCRF-CEM): 45.5 µM (inactive)
GI50 (SW-620): 69.8 µM (inactive)
GI50 (OVCAR-8): 79.3 µM (inactive)
GI50 (XF498): > 100 µM (inactive)
GI50 (A549): 66.5 µM (inactive)
GI50 (UO-31): 50.7 µM (inactive)
GI50 (UACC-257): > 100 µM (inactive)
GI50 (SNB-19): > 100 µM (inactive)
GI50 (NCI-H226): 95.1 µM (inactive)
GI50 (KM12): 85.3 µM (inactive)
GI50 (HL-60): 39.5 µM (inactive)
GI50 (OVCAR-5): > 100 µM (inactive)
GI50 (MOLT-4): 56.5 µM (inactive)
GI50 (ACHN): 51.4 µM (inactive)
GI50 (U-251): > 100 µM (inactive)
GI50 (SF-539): > 100 µM (inactive)

CCC1CN2CCc3cc(OC)c(OC)cc3C2CC1CC1c2cc(OC)c(OC)cc2CCN1C(=O)CNC(=O)OC(C)(C)C (stereo not drawn)
GI50 (DMS-114): 3.8 µM (inactive)
GI50 (HT-29): 3.49 µM (inactive)
GI50 (NCI-H23): 21.4 µM (inactive)
GI50 (LXFL 529): 10.9 µM (inactive)
GI50 (IGROV-1): 19.5 µM (inactive)
GI50 (SN12C): 24.1 µM (inactive)
GI50 (SK-MEL-28): 23.8 µM (inactive)
GI50 (K562): 3.34 µM (inactive)
GI50 (OVCAR-4): 2.88 µM (inactive)
GI50 (DMS-273): 12 µM (inactive)
GI50 (SK-MEL-2): 12.4 µM (inactive)
GI50 (EKVX): 5.05 µM (inactive)
GI50 (M19-MEL): 16.3 µM (inactive)
GI50 (KM-20L2): 5.08 µM (inactive)
GI50 (COLO 205): 3.44 µM (inactive)
GI50 (SK-OV-3): 28.6 µM (inactive)
GI50 (A498): 32.3 µM (inactive)
GI50 (SNB-78): 20.5 µM (inactive)
GI50 (HCT-15): 12.3 µM
GI50 (OVCAR-3): 11.9 µM (inactive)
GI50 (UACC-62): 19.7 µM (inactive)
GI50 (Malme-3M): 19.5 µM (inactive)
GI50 (CAKI-1): 21.7 µM (inactive)
GI50 (HOP-18): 23.3 µM (inactive)
GI50 (RXF 631): 30.3 µM (inactive)
GI50 (RPMI-8226): 19 µM (inactive)
GI50 (DLD-1): 4.67 µM (inactive)
GI50 (TK-10): 28.6 µM (inactive)
GI50 (LOX IMVI): 4.48 µM (inactive)
GI50 (NCI-H460): 6.49 µM (inactive)
GI50 (SK-MEL-5): 6 µM (inactive)
GI50 (HCC 2998): 3.1 µM (inactive)
GI50 (SF-268): 24.4 µM (inactive)
GI50 (786-0): 4.08 µM (inactive)
GI50 (M14): > 10 µM (inactive)
GI50 (SF-295): 3.9 µM (inactive)
GI50 (SNB-75): 20.9 µM (inactive)
GI50 (CCRF-CEM): 3.34 µM (inactive)
GI50 (SW-620): 4.07 µM (inactive)
GI50 (OVCAR-8): 5.64 µM (inactive)
GI50 (XF498): 7.53 µM (inactive)
GI50 (A549): 4.57 µM (inactive)
GI50 (UO-31): 24.4 µM (inactive)
GI50 (UACC-257): 21.4 µM (inactive)
GI50 (SNB-19): 13.9 µM (inactive)
GI50 (NCI-H226): 18.3 µM (inactive)
GI50 (KM12): 3.31 µM (inactive)
GI50 (HL-60): 4.14 µM (inactive)
GI50 (OVCAR-5): 24.3 µM (inactive)
GI50 (MOLT-4): 3.44 µM (inactive)
GI50 (ACHN): 21.5 µM (inactive)
GI50 (U-251): 5.51 µM (inactive)
GI50 (RXF 393): 17.5 µM (inactive)
